Measured values as given in patent publication US20080095778A1, “Treatment Of Fungal Infections” (priority 2004, published 2008).
Like-named read-outs stand apart in the source and are kept apart here.

What was measured:
A. fumigatus CI2 = test: Broth microdilution (NCCLS M38-A) checkerboard assay, A. fumigatus CI2; assay type: cell-based, Aspergillus fumigatus; details: for MIC: Aspergillus fumigatus, agent alone, read-out: MIC-2 of each agent, Alone
Method: (§1) Stock solutions of amphotericin B (AMB, Sigma), caspofungin (Caspo), voriconazole (VOR) and itraconazole (ITZ) were prepared according to the National Committee for Clinical Laboratory Standards (M38-A) in RPMI 1640 with glutamine broth medium, buffered to pH 7.0 with […] morpholinopropanesulphonic acid (MOPS). AMB stock solutions were prepared as a 100× series in 100% dimethyl sulfoxide (DMSO) and diluted in medium to a concentration range of 0.03125 to 16 μg/ml. Caspofungin, voriconazole and itraconazole were tested at a concentration range of 0.03125 to 1024 μg/ml, and Mycograb® (NeuTec Pharma plc) at a concentration range of 0.25 to 1024 μg/ml.
(§2) Clinical isolates of Aspergillus fumigatus (2), A. flavus (1), A. terreus (1) and A. niger (1) were obtained from the Department on Microbiology, Manchester Royal Infirmary, Manchester, UK.
(§3) An inoculum suspension was prepared in buffered RPMI with glutamine medium by probing colonies from a 7 day old Sabouraud plate. The suspension was adjusted to 0.09-0.11 (80% to 82% transmittance) for Aspergillus species, 0.15-0.17 (68% to 70% transmittance). The inoculum was diluted a further 1:2 when added to the antifungal agents in the assay (final inoculum (0.4×10^4 to 0.5×10^4). For AMB and Mycograb®, either alone or in combination, the endpoint was determined as the concentration to produce no growth (MIC-0). Microtitre plates were incubated at 37° C. without agitation for 48 hours for Aspergillus species. For caspofungin, voriconazole and itraconazole, either alone or in combination with Mycograb® antibody, the MIC endpoint was determined as the concentration resulting in a prominent decrease in turbidity (≧50% growth inhibition, MIC-2) compared to the growth control (Keele et al. 2001; Espinel-Ingroff 2003). The final inhibitory concentration (FIC) was calculated for each drug by dividing the MIC in the presence of the second drug by the MIC in its absence. For each combination, two fractions were produced which were summated to produce the fractional final inhibitory concentration. Synergy was defined by value of ≦0.5, indifference was defined by a value of >0.5 to <4.0, and antagonism was defined by a value of ≧4.0 (Matthews et al., 2003).

A. fumigatus = test: Broth microdilution (NCCLS M38-A) checkerboard assay, A. fumigatus; assay type: cell-based, Aspergillus fumigatus; details: for MIC: Aspergillus fumigatus, agent alone, read-out: MIC-2 of each agent, Alone
Method: as §1, §2, §3

Aspergillus species = test: Antifungal activity with Mycograb antibody, summary over the Aspergillus species examined; assay type: cell-based; details: for Antifungal activity / surprising effect when used in combination with Mycograb antibody: summary of Tables 1-4, agent combined with Mycograb antibody
Method: as §3

A. niger = test: Broth microdilution (NCCLS M38-A) checkerboard assay, A. niger; assay type: cell-based; details: for MIC: Aspergillus niger, agent alone, read-out: MIC-2 of each agent, Alone
Method: as §1, §2, §3

A. flavus = test: Broth microdilution (NCCLS M38-A) checkerboard assay, A. flavus; assay type: cell-based; details: for MIC: Aspergillus flavus, agent alone, read-out: MIC-2 of each agent, Alone
Method: as §1, §2, §3

A. terreus = test: Broth microdilution (NCCLS M38-A) checkerboard assay, A. terreus; assay type: cell-based; details: for MIC: Aspergillus terreus, agent alone, read-out: MIC-2 of each agent, Alone; for FIC: MIC in combination divided by MIC alone
Method: as §1, §2, §3

[1] = Table 2, ≧50% growth inhibition endpoint
[2] = caspofungin and Mycograb combination
[3] = caspofungin and Mycograb in combination
[4] = Table 3, ≧50% growth inhibition endpoint
[5] = itraconazole and Mycograb combination
[6] = itraconazole and Mycograb in combination
[7] = Table 4, ≧50% growth inhibition endpoint
[8] = voriconazole and Mycograb combination
[9] = voriconazole and Mycograb in combination

## CC[C@H](C)C[C@H](C)CCCCCCCCC(=O)N[C@H]1C[C@@H](O)[C@@H](NCCN)NC(=O)[C@@H]2[C@@H](O)CCN2C(=O)[C@H]([C@H](O)CCN)NC(=O)[C@H]([C@H](O)[C@@H](O)c2ccc(O)cc2)NC(=O)[C@@H]2C[C@@H](O)CN2C(=O)[C@H]([C@@H](C)O)NC1=O [Caspo, caspofungin]
A. fumigatus CI2; [1]
  MIC: 0.125 µg/mL
A. fumigatus CI2; [2]
  FICI: 0.562
  Outcome: Indifferent (indifference was defined by a value of >0.5 to <4.0)
A. fumigatus CI2; [3]
  MIC-2 of each agent, Combination: 0.0625 µg/mL
A. fumigatus; [1]
  MIC: 0.125 µg/mL
A. fumigatus; [2]
  FICI: 0.562
  Outcome: Indifferent (indifference was defined by a value of >0.5 to <4.0)
A. fumigatus; [3]
  MIC-2 of each agent, Combination: 0.0625 µg/mL
Aspergillus species
  Antifungal activity / surprising effect when used in combination with Mycograb antibody: not observed
A. niger; [1]
  MIC: 1 µg/mL
A. niger; [2]
  FICI: 0.125
  Outcome: Synergy (Synergy was defined by value of ≦0.5)
A. niger; [3]
  MIC-2 of each agent, Combination: 0.125 µg/mL
A. flavus; [1]
  MIC: 1 µg/mL
A. flavus; [2]
  FICI: 0.500
  Outcome: Indifferent (indifference was defined by a value of >0.5 to <4.0)
A. flavus; [3]
  MIC-2 of each agent, Combination: 0.5 µg/mL
A. terreus; [1]
  MIC: 0.312 µg/mL
A. terreus; [2]
  FICI: 0.312
  Outcome: Synergy (Synergy was defined by value of ≦0.5)
A. terreus; [3]
  MIC-2 of each agent, Combination: 0.078 µg/mL
A. terreus; caspofungin and Mycograb
  FIC: 0.25 µg/mL

## CCC(C)n1ncn(-c2ccc(N3CCN(c4ccc(OCC5COC(Cn6cncn6)(c6ccc(Cl)cc6Cl)O5)cc4)CC3)cc2)c1=O (stereo not drawn) [ITZ, itraconazole]
A. fumigatus CI2; [4]
  MIC: 0.5 µg/mL
A. fumigatus CI2; [5]
  FICI: 0.2578
  Outcome: Synergy (Synergy was defined by value of ≦0.5)
A. fumigatus CI2; [6]
  MIC-2 of each agent, Combination: 0.125 µg/mL
A. fumigatus; [4]
  MIC: 0.5 µg/mL
A. fumigatus; [5]
  FICI: 0.0781
  Outcome: Synergy (Synergy was defined by value of ≦0.5)
A. fumigatus; [6]
  MIC-2 of each agent, Combination: 0.0312 µg/mL
A. niger; [4]
  MIC: 0.125 µg/mL
A. niger; [5]
  FICI: 0.375
  Outcome: Synergy (Synergy was defined by value of ≦0.5)
A. niger; [6]
  MIC-2 of each agent, Combination: 0.0156 µg/mL
A. flavus; [4]
  MIC: 0.125 µg/mL
A. flavus; [5]
  FICI: 0.25
  Outcome: Synergy (Synergy was defined by value of ≦0.5)
A. flavus; [6]
  MIC-2 of each agent, Combination: 0.0312 µg/mL
A. terreus; [4]
  MIC: 0.125 µg/mL
A. terreus; [5]
  FICI: 0.281
  Outcome: Synergy (Synergy was defined by value of ≦0.5)
A. terreus; [6]
  MIC-2 of each agent, Combination: 0.0312 µg/mL
A. terreus; itraconazole and Mycograb
  FIC: 0.25 µg/mL

## C[C@@H](c1ncncc1F)[C@](O)(Cn1cncn1)c1ccc(F)cc1F [VOR, voriconazole]
A. fumigatus CI2; [7]
  MIC: 0.25 µg/mL
A. fumigatus CI2; [8]
  FICI: 0.5
  Outcome: Synergy (Synergy was defined by value of ≦0.5)
A. fumigatus CI2; [9]
  MIC-2 of each agent, Combination: 0.125 µg/mL
A. fumigatus; [7]
  MIC: 0.0625 µg/mL
A. fumigatus; [8]
  FICI: 0.5
  Outcome: Synergy (Synergy was defined by value of ≦0.5)
A. fumigatus; [9]
  MIC-2 of each agent, Combination: 0.0312 µg/mL
Aspergillus species
  Antifungal activity / surprising effect when used in combination with Mycograb antibody: surprisingly high level of antifungal activity against all the species examined except for A. niger
A. niger; [7]
  MIC: 0.125 µg/mL
A. niger; [8]
  FICI: 2
  Outcome: Indifferent (indifference was defined by a value of >0.5 to <4.0)
A. niger; [9]
  MIC-2 of each agent, Combination: 0.125 µg/mL
A. flavus; [7]
  MIC: 0.25 µg/mL
A. flavus; [8]
  FICI: 0.25
  Outcome: Synergy (Synergy was defined by value of ≦0.5)
A. flavus; [9]
  MIC-2 of each agent, Combination: 0.0625 µg/mL
A. terreus; [7]
  MIC: 0.25 µg/mL
A. terreus; [8]
  FICI: 0.5
  Outcome: Synergy (Synergy was defined by value of ≦0.5)
A. terreus; [9]
  MIC-2 of each agent, Combination: 0.125 µg/mL
A. terreus; voriconazole and Mycograb
  FIC: 0.5 µg/mL

## CC[C@@H]([C@H](C)O)n1ncn(-c2ccc(N3CCN(c4ccc(OC[C@@H]5CO[C@@](Cn6cncn6)(c6ccc(F)cc6F)C5)cc4)CC3)cc2)c1=O [posaconazole]
Aspergillus species; preliminary results
  Synergy with antibody specific for Aspergillus hsp90 epitope: capable of achieving similar synergistic results
